Source: ChEMBL document CHEMBL5518185, “Design, synthesis and antitumor activity of 4-arylamine substituted pyrimidine derivatives as noncovalent EGFR inhibitors overcoming C797S mutation” (Eur J Med Chem, 2024)
Calls of active or inactive are those of the source. The calls are words filed in the database; no cut-off is given here.

What was measured:
HCC827 [1] = experiment: Antiproliferative activity against human HCC827 cells assessed as inhibition of cell growth measured after 72 hrs by MTT assay; type: functional, cell-based; details: HCC827, 72 h
A549 = experiment: Antiproliferative activity against human A549 cells assessed as inhibition of cell growth measured after 72 hrs by MTT assay; type: functional, cell-based; details: A549, 72 h
[2] = biological target: Epidermal growth factor receptor (Homo sapiens, UniProt P00533, C797S/EX19DEL/T790M); experiment: Inhibition of EGFR Del19/T790M/C797S triple mutant (unknown origin) preincubated for 10 mins followed by substrate addition and measured after 50 mins in presence of ATP by HTRF assay
[3] = biological target: Epidermal growth factor receptor (Homo sapiens, UniProt P00533, C797S/L858R/T790M); experiment: Inhibition of EGFR L858R/T790M/C797S triple mutant (unknown origin) preincubated for 10 mins followed by substrate addition and measured after 50 mins in presence of ATP by HTRF assay
[4] = biological target: Epidermal growth factor receptor (Homo sapiens, UniProt P00533); experiment: Inhibition of wild type EGFR (unknown origin) at 100 nM preincubated for 10 mins followed by substrate addition and measured after 50 mins in presence of ATP by HTRF assay relative to control; details: time 60.0 min
Homo sapiens = species on record: Homo sapiens; experiment: Inhibition of FGFR (unknown origin) by HTRF assay relative to control; details: concentration not given here
[5] = biological target: Insulin-like growth factor 1 receptor (Homo sapiens) (UniProt P08069); experiment: Inhibition of IGF-1R (unknown origin) by HTRF assay relative to control; details: concentration not given here
Sequence of Insulin-like growth factor 1 receptor (Homo sapiens) (P08069 31-736 limits assumed): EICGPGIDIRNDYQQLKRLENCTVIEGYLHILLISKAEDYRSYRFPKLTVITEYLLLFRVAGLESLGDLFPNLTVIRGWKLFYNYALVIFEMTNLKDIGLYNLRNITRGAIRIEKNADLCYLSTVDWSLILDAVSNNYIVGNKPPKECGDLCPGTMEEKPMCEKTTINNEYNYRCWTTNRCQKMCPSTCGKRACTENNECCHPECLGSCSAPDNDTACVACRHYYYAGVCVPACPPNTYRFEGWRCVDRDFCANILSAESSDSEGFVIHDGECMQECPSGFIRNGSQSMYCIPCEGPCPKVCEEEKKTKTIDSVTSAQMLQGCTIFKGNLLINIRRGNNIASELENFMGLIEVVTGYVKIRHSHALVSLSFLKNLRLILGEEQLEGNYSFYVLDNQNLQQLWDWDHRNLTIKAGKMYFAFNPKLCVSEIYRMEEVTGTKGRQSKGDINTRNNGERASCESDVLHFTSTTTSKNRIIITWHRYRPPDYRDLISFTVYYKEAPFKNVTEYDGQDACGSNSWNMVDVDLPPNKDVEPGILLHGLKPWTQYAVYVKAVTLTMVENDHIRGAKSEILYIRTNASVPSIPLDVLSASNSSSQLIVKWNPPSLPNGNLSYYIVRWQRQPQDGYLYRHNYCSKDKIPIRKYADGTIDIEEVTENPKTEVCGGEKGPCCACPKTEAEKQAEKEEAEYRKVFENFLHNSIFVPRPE
Sequence of Insulin-like growth factor 1 receptor (Homo sapiens) (P08069 741-1367 limits assumed): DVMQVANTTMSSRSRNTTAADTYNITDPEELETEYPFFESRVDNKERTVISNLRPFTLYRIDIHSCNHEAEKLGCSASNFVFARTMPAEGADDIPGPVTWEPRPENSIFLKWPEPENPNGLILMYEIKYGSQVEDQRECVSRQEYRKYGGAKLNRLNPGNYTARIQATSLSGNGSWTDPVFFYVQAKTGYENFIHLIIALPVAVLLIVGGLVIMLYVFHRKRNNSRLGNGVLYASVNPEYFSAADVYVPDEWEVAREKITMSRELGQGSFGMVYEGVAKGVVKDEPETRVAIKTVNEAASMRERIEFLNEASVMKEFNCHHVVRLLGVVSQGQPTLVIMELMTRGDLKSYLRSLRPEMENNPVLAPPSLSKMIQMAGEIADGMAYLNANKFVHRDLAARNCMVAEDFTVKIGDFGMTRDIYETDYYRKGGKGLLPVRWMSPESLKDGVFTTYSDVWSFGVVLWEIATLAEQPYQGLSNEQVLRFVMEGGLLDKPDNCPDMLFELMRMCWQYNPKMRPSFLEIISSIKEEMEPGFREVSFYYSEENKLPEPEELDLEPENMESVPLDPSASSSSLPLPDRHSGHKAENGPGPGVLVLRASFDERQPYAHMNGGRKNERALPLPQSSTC

[6] = biological target: Dual specificity mitogen-activated protein kinase kinase; MEK1/2 (Homo sapiens) (UniProt P36507+Q02750); experiment: Inhibition of MEK1/2 (unknown origin) by HTRF assay relative to control; type: protein assay; details: concentration not given here
Sequence of Dual specificity mitogen-activated protein kinase kinase; MEK1/2 (Homo sapiens) (P36507 whole entry, looked up): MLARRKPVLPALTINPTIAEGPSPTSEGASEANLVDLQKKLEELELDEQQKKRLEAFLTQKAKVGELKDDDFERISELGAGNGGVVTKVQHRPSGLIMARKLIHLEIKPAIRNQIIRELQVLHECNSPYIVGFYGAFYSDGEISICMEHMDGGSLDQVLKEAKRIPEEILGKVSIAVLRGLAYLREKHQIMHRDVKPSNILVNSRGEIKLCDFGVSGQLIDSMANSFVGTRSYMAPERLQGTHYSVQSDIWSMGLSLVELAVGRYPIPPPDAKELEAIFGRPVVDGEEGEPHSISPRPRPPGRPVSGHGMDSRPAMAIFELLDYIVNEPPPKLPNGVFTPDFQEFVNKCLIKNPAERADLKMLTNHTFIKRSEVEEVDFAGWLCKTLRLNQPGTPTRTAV
Sequence of Dual specificity mitogen-activated protein kinase kinase; MEK1/2 (Homo sapiens) (Q02750 whole entry, looked up): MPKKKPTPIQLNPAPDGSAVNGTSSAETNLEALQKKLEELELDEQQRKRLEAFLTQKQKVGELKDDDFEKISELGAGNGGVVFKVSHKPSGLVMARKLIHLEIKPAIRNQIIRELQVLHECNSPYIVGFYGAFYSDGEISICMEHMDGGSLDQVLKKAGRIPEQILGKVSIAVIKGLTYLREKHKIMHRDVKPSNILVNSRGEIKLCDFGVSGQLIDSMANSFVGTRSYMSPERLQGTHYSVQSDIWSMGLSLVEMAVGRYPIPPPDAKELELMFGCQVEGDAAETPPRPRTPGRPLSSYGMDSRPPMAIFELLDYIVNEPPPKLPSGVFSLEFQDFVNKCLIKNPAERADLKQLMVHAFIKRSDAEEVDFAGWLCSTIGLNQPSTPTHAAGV

[7] = biological target: Platelet-derived growth factor receptor alpha (Homo sapiens) (UniProt P16234); experiment: Inhibition of PDGFR alpha (unknown origin) by HTRF assay relative to control; details: concentration not given here
[8] = biological target: RAF proto-oncogene serine/threonine-protein kinase (Homo sapiens) (UniProt P04049); experiment: Inhibition of c-RAF (unknown origin) by HTRF assay relative to control; details: concentration not given here
Sequence of RAF proto-oncogene serine/threonine-protein kinase (Homo sapiens) (P04049 whole entry): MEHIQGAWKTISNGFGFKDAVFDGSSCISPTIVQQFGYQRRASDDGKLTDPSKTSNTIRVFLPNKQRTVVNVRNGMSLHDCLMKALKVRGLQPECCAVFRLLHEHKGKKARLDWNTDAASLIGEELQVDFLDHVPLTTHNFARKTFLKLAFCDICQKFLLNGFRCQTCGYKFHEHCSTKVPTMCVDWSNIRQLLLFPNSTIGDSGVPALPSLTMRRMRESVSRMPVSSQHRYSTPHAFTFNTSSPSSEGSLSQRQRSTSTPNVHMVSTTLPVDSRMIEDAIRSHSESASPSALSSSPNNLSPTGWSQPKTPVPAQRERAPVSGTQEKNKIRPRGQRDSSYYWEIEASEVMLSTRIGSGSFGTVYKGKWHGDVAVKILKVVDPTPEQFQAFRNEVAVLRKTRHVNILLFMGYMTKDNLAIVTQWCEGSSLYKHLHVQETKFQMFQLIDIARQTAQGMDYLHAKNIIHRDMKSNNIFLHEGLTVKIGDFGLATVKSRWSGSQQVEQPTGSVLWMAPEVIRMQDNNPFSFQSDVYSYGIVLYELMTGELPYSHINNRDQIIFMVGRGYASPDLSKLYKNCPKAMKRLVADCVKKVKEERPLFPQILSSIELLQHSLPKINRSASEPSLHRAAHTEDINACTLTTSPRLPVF

[9] = Cytotoxicity against human L02 cells assessed as inhibition of cell viability measured after 72 hrs by MTT assay; type: toxicity, cell-based
HCC827 [10] = experiment: Inhibition of colony formation in human HCC827 cells measured after 14 days by crystal violet staining based analysis; type: functional, cell-based; details: HCC827, 336 h
HCC827 [11] = experiment: Inhibition of colony formation in human HCC827 cells at 100 nM measured after 14 days by crystal violet staining based analysis relative to control; type: functional; details: HCC827, 336 h, time 14 day
HCC827 [12] = experiment: Induction of cell cycle arrest in human HCC827 cells assessed as accumulation of cells at G0/G1 phase at 30 nM measured after 24 hrs by PI staining based flow cytometry analysis (reference value: 54.36%); type: functional
HCC827 [13] = experiment: Induction of cell cycle arrest in human HCC827 cells assessed as accumulation of cells at S phase at 10 nM measured after 24 hrs by PI staining based flow cytometry analysis (reference value: 28.81%); type: functional
HCC827 [14] = experiment: Induction of cell cycle arrest in human HCC827 cells assessed as accumulation of cells at S phase at 30 nM measured after 24 hrs by PI staining based flow cytometry analysis (reference value: 28.81%); type: functional
HCC827 [15] = experiment: Induction of cell cycle arrest in human HCC827 cells assessed as accumulation of cells at S phase at 100 nM measured after 24 hrs by PI staining based flow cytometry analysis (reference value: 28.81%); type: functional
HCC827 [16] = experiment: Induction of cell cycle arrest in human HCC827 cells assessed as accumulation of cells at G2/M phase at 10 nM measured after 24 hrs by PI staining based flow cytometry analysis (reference value: 16.83%); type: functional
HCC827 [17] = experiment: Induction of apoptosis in human HCC827 cells assessed as viable cells at 30 nM measured after 24 hrs by annexin V/PI staining based flu cytometry analysis (reference value: 84.0%); type: functional; details: read-out: Activity
HCC827 [18] = experiment: Induction of apoptosis in human HCC827 cells assessed as viable cells at 100 nM measured after 24 hrs by annexin V/PI staining based flu cytometry analysis (reference value: 84.0%); type: functional; details: read-out: Activity
HCC827 [19] = experiment: Induction of apoptosis in human HCC827 cells assessed as late apoptotic cells at 30 nM measured after 24 hrs by annexin V/PI staining based flu cytometry analysis (reference value: 5.50%); type: functional
HCC827 [20] = experiment: Induction of apoptosis in human HCC827 cells assessed as late apoptotic cells at 100 nM measured after 24 hrs by annexin V/PI staining based flu cytometry analysis (reference value: 5.50%); type: functional
HCC827 [21] = experiment: Induction of apoptosis in human HCC827 cells assessed as necrotic cells at 30 nM measured after 24 hrs by annexin V/PI staining based flu cytometry analysis (reference value: 7.34%); type: functional
HCC827 [22] = experiment: Induction of apoptosis in human HCC827 cells assessed as necrotic cells at 100 nM measured after 24 hrs by annexin V/PI staining based flu cytometry analysis (reference value: 7.34%); type: functional
[23] = biological target: Mitogen-activated protein kinase; ERK1/ERK2 (Homo sapiens) (UniProt P27361+P28482); experiment: Inhibition of ERK1/2 phosphorylation (unknown origin) at 100 nM by Western blotting analysis; type: protein assay
Sequence of Mitogen-activated protein kinase; ERK1/ERK2 (Homo sapiens) (P27361 whole entry, looked up): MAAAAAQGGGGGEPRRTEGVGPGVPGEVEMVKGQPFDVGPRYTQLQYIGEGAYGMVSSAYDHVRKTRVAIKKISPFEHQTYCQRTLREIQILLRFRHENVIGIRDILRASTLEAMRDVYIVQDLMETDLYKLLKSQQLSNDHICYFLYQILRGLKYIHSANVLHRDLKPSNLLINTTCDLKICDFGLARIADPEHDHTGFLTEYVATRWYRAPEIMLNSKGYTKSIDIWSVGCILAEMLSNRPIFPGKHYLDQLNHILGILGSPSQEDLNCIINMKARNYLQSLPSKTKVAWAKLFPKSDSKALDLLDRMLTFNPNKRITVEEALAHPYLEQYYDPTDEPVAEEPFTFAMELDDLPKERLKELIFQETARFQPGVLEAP
Sequence of Mitogen-activated protein kinase; ERK1/ERK2 (Homo sapiens) (P28482 whole entry, looked up): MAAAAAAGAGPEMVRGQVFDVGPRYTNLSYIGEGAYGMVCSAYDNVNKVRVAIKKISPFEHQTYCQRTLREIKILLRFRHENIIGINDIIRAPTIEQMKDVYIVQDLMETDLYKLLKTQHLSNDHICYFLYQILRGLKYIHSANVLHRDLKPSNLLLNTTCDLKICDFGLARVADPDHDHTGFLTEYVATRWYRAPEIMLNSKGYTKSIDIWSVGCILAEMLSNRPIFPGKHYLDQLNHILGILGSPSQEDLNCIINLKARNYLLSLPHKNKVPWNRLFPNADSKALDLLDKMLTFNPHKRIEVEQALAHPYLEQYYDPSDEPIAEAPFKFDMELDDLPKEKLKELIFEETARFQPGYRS

HCC827 [24] = experiment: Induction of apoptosis in human HCC827 cells assessed as activation of PARP level measured after 48 hrs by Western blot analysis; type: functional, cell-based; details: dose 10-400 nM
HCC827 [25] = experiment: Induction of apoptosis in human HCC827 cells assessed as activation of caspase-3 level measured after 48 hrs by Western blot analysis; type: functional, cell-based; details: dose 10-400 nM
HCC827 [26] = experiment: Antitumor activity against human HCC827 cells xenografted in BALB/c nude mouse assessed as tumor growth inhibition at 10 mg/kg/day, po measured every three days for 21 days by vernier caliper based analysis relative to control; type: functional; details: HCC827, 504 h, time 21 day, read-out: TGI
HCC827 [27] = experiment: Antitumor activity against human HCC827 cells xenografted in BALB/c nude mouse assessed as tumor growth inhibition at 50 mg/kg/day, po measured every three days for 21 days by vernier caliper based analysis relative to control; type: functional; details: HCC827, 504 h, time 21 day, read-out: TGI
[28] = Toxicity in BALB/c nude mouse assessed as animal death at 10 to 50 mg/kg/day, po measured every three days for 21 days; type: organism-based; details: in vivo, 504 h, dose 10-50 mg/kg/day, time 21 day
[29] = Toxicity in BALB/c nude mouse assessed as drug tolerability at 10 to 50 mg/kg/day, po measured every three days for 21 days; type: organism-based; details: in vivo, 504 h, dose 10-50 mg/kg/day, time 21 day
[30] = system: Epidermal growth factor receptor (Homo sapiens), P00533 [UNDEFINED MUTATION]; details: dose 100.0 nM
Sequence of Epidermal growth factor receptor (Homo sapiens), P00533 [UNDEFINED MUTATION] (P00533 whole entry, looked up, change not shown): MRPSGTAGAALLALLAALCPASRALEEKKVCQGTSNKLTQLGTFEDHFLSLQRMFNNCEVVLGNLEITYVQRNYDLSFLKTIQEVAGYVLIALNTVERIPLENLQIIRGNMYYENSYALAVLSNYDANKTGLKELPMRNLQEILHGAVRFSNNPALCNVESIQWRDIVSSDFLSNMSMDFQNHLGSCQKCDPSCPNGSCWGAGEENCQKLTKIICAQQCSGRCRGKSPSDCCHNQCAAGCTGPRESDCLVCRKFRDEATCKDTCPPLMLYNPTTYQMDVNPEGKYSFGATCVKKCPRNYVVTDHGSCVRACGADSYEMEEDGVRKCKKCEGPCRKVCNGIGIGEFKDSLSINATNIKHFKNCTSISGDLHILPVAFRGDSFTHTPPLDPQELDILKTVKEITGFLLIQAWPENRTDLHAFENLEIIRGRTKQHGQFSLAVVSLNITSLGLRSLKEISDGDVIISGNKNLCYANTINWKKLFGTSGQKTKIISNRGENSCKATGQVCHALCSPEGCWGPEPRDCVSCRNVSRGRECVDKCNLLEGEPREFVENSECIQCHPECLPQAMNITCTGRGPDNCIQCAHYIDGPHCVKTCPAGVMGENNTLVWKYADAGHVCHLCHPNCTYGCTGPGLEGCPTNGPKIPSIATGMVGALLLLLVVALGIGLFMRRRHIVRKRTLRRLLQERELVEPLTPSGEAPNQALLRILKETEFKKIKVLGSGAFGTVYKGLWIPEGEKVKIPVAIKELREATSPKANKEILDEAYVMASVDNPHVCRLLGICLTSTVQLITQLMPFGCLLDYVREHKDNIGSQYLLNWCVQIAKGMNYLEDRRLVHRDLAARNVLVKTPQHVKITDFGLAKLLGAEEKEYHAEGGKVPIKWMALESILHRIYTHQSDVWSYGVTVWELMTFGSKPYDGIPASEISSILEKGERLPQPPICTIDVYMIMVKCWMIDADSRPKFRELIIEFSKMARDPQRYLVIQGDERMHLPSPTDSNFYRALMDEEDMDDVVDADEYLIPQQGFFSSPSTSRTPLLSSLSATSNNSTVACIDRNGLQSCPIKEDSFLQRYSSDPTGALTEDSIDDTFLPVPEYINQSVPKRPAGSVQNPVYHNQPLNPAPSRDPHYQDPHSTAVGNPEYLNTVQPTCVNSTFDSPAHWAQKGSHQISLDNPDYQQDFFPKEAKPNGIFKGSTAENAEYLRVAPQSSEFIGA

[31] = system: Epidermal growth factor receptor (Homo sapiens), P00533 [UNDEFINED MUTATION]; details: dose 30.0 nM
[32] = Inhibition of ERK (unknown origin) by HTRF assay relative to control; details: Homo sapiens; concentration not given here

O=C(NO)c1sccc1Nc1nc(Nc2ccc(N3CCOCC3)cc2)ncc1Cl
IC50 (HCC827 [1]): 25 nM
IC50 (A549): 703 nM
IC50 [2]: 16.1 nM
IC50 [3]: 11.8 nM
inhibition [4]: 99.5%
inhibition (Homo sapiens): < 70%
inhibition [5]: < 70%
inhibition [6]: < 70%
inhibition [7]: < 70%
inhibition [8]: < 70%
IC50 at 72 h [9]: 2450 nM
IC50 (HCC827 [10]): 24.6 nM
inhibition at 0.1 µM (HCC827 [11]): 100%
Activity (HCC827 [12]): 68.63%
Activity (HCC827 [13]): 16.41%
Activity (HCC827 [14]): 12.31%
Activity (HCC827 [15]): 9.64%
Activity (HCC827 [16]): 17.56%
viability at 0.03 µM (HCC827 [17]): 70.7%
viability at 0.1 µM (HCC827 [18]): 76%
Activity (HCC827 [19]): 10.4%
Activity (HCC827 [20]): 14.3%
Activity (HCC827 [21]): 7.64%
Activity (HCC827 [22]): 6.32%
inhibition [23]: Active
Activity (HCC827 [24]): Dose-Dependent Effect
Activity (HCC827 [25]): Dose-Dependent Effect
inhibition in vivo at 10 mg/kg/day (HCC827 [26]): 50.6%
inhibition in vivo at 50 mg/kg/day (HCC827 [27]): 89.5%
Activity [28]: Non-Toxic
Activity [29]: Non-Toxic
inhibition [30]: 88.6%
inhibition [31]: 61.9%
inhibition [32]: < 70%
